Results published in patent US9132126B2, “Phenyl-isoxazole derivatives and preparation process thereof” (priority 2011, dated 2015).
In brackets after ≈: the same amount, converted by molar mass. Read-outs that look alike come from different tables or passages of the source.

System: Oseltamivir resistant strain virus
Experiment: microbe, parasite or virus in culture
Type: cell-based, influenza virus
[1] = unidentified influenza virus, read-out: EC50

SMILES	SI value	antiviral activity effect on a virus strain resistant to Oseltamivir (tamiflu) (in words)	EC50 [1] [µg/mL]	antiviral activity effect on a virus strain resistant to Oseltamivir (tamiflu)	EC50 (Oseltamivir resistant strain) [µg/mL]
COc1cccc(N2CCN(C(=O)c3c(-c4ccccc4C(F)(F)F)noc3C)CC2)c1 [Example 3, (4-(3-methoxyphenyl)piperazine-1-yl)(5-methyl-3-(2-(trifluoromethyl)phenyl)isoxazol-4-yl)methanone]	3276.59 to 9812.50	high antiviral activity effect	0.064 to 0.094 (≈ 0.144 to 0.211 µM)		
COc1ccccc1N1CCN(C(=O)c2c(-c3ccccc3C(F)(F)F)noc2C)CC1 [Example 4]	1.563 to 3.125			high antiviral activity effect	50 (≈ 112 µM)
COc1cccc(N2CCN(C(=O)c3c(-c4ccccc4Cl)noc3C)CC2)c1 [Example 9, (3-(2-chlorophenyl)-5-methylisoxazol-4-yl)(4-(3-methoxyphenyl)piperazine-1-yl)methanone]	3221.649 to 13020.833	high antiviral activity effect	0.048 to 0.097 (≈ 0.117 to 0.236 µM)		
Cc1onc(-c2cccc(F)c2)c1C(=O)N1CCN(c2ccc(Cl)c(Cl)c2)CC1 [Example 11, (4-(3,4-dichlorophenyl)piperazine-1-yl)(3-(3-fluorophenyl)-5-methylisoxazol-4-yl)methanone]	1471.794 to 3205.128	high antiviral activity effect	0.195 (≈ 0.449 µM)		
COc1cccc(N2CCN(C(=O)c3c(-c4cccc(F)c4)noc3C)CC2)c1 [Example 12, (3-(3-fluorophenyl)-5-methylisoxazol-4-yl)(4-(3-methoxyphenyl)piperazine-1-yl)methanone]	50.016 to 100.032	high antiviral activity effect	1.56 (≈ 3.95 µM)		
Cc1onc(-c2cccc(F)c2)c1C(=O)N1CCN(c2ccccc2O)CC1 [Example 16, (3-(3-fluorophenyl)-5-methylisoxazol-4-yl)(4-(2-hydroxyphenyl)piperazine-1-yl)methanone]	100.032 to 200.321	high antiviral activity effect	0.39 to 0.781 (≈ 1.02 to 2.05 µM)		
Cc1onc(-c2ccccc2OC(F)(F)F)c1C(=O)N1CCN(c2ccc(Cl)c(Cl)c2)CC1 [Example 35, (4-(3,4-dichlorophenyl)piperazine-1-yl)(5-methyl-3-(2-(trifluoromethoxy)phenyl)isoxazol-4-yl)methanone]	1602.564 to 3205.128	high antiviral activity effect	0.195 (≈ 0.39 µM)		
COc1cccc(N2CCN(C(=O)c3c(-c4ccccc4Cl)noc3N)CC2)c1 [Example 60, (5-amino-3-(2-chlorophenyl)isoxazol-4-yl)(4-(3-methoxyphenyl)piperazine-1-yl)methanone]		high antiviral activity effect	0.053 to 0.094 (≈ 0.128 to 0.228 µM)		
CCOC(=O)C1CCN(C(=O)c2c(-c3ccccc3OC(F)(F)F)noc2N)CC1 [Example 124]	12.5			high antiviral activity effect	25 (≈ 58.5 µM)
CCOC(=O)C1=C[C@@H](OC(CC)CC)[C@H](NC(C)=O)[C@@H](N)C1 [Oseltamivir, reference compound]	12.5 to 25		50 (≈ 160 µM)		
